Here are results for 10 compounds from patent US10968225B2, “Compounds and compositions for the treatment of cystic fibrosis” (Fondazione Istituto Italiano Di Tecnologia, priority 2017, dated 2021).

The target of the experiment is T1, mutant CFTR (Homo sapiens, UniProt P13569, DEL508-508).
T1 construct: expressed in transfected cells
T1 sequence (P13569 with tags, fused parts or gaps DEL508-508): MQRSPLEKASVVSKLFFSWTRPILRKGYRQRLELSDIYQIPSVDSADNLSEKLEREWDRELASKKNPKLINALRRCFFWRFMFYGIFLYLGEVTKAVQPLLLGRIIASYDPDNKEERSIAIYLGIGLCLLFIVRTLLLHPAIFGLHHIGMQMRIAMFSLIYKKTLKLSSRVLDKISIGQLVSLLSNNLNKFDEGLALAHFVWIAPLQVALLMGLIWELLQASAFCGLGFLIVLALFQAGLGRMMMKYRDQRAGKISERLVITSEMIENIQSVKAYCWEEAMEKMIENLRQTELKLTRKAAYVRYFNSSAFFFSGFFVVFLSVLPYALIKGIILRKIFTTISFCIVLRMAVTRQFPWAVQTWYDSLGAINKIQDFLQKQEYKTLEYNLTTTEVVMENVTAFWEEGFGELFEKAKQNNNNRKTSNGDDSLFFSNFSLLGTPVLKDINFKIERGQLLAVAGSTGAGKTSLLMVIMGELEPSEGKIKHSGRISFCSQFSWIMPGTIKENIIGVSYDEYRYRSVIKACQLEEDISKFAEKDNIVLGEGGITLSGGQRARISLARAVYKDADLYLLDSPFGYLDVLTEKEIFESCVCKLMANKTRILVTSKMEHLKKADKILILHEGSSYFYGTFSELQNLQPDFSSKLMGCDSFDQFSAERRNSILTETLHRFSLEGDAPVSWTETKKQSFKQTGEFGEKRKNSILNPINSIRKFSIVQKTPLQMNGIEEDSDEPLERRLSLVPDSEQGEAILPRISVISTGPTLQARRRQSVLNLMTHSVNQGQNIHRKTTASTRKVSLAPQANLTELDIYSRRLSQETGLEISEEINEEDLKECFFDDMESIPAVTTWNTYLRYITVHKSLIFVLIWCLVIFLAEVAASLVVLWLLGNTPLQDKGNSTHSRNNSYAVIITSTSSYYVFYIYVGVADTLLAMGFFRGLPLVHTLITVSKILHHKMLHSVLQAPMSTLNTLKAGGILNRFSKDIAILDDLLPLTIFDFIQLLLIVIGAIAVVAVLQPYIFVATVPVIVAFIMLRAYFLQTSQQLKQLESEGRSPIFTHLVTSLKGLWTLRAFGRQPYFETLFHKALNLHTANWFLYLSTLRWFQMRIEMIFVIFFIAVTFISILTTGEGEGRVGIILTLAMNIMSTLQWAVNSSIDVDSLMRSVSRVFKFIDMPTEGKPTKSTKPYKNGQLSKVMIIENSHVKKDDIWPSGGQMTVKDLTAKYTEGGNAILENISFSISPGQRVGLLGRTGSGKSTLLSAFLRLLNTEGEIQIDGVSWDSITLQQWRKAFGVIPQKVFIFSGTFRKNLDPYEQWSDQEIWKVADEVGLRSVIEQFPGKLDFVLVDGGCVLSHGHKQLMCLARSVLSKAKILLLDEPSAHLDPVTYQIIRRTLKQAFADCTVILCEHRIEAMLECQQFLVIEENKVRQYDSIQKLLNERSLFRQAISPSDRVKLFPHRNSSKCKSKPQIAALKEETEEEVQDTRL
Nature of the experiment: Fluorescence (HS-YFP) assay for CFTR activity, corrector assay. The format is cell-based. The note with it: CFBE41o- and FRT cells with stable expression of mutant CFTR, read-out: activity (EC50).
For `Cc1nc2cc(F)c(N(C)C(=O)c3cccc(-n4nc(C(F)(F)F)c5c4CCN(C)C5)c3)cc2o1` [Compound 046, N-(5-Fluoro-2-methyl-1,3-benzoxazol-6-yl)-N-methyl-3-[5-methyl-3-(trifluoromethyl)-6,7-dihydro-4H-pyrazolo[4,3-c]pyridin-1-yl]benzamide], the EC50 is below 1 µM.
The value for `Cc1nc2cc(F)c(NC(=O)c3cccc(-n4nc(C(F)(F)F)c5c4CCN(C)C5)c3)cc2o1` [Compound 047, N-(5-Fluoro-2-methyl-1,3-benzoxazol-6-yl)-3-[5-methyl-3-(trifluoromethyl)-6,7-dihydro-4H-pyrazolo[4,3-c]pyridin-1-yl]benzamide] was above 2 µM; that for `CN(C(=O)c1cccc(-n2nc(C(F)(F)F)c3c2CCOC3)c1)c1ccc2c(c1)OCO2` [Compound 054, N-(1,3-Benzodioxol-5-yl)-N-methyl-3-[3-(trifluoromethyl)-6,7-dihydro-4H-pyrano[4,3-c]pyrazol-1-yl]benzamide] was below 1 µM.
For `COC(=O)c1ccc(S(=O)(=O)N2CCc3c(c(C(F)(F)F)nn3-c3cccc(C(=O)N(C)c4ccc5c(c4)OCO5)c3)C2)cc1` [Compound 055, Methyl 4-[[1-[3-[1,3-benzodioxol-5-yl(methyl)carbamoyl]phenyl]-3-(trifluoromethyl)-6,7-dihydro-4H-pyrazolo[4,3-c]pyridin-5-yl]sulfonyl]benzoate], the EC50 was below 1 µM.
`CNC(=O)N1CCc2c(c(C(F)(F)F)nn2-c2cccc(C(=O)N(C)c3ccc4c(c3)OCO4)c2)C1` [Compound 056, 1-[3-[1,3-Benzodioxol-5-yl(methyl)carbamoyl]phenyl]-N-methyl-3-(trifluoromethyl)-6,7-dihydro-4H-pyrazolo[4,3-c] pyridine-5-carboxamide]: the EC50 was below 1 µM.
The value for `CN(C(=O)c1cccc(-n2nc(C(F)(F)F)c3c2CCN(S(=O)(=O)c2ccc(C(=O)O)cc2)C3)c1)c1ccc2c(c1)OCO2` [Compound 057, 4-[[1-[3-[1,3-Benzodioxol-5-yl(methyl)carbamoyl]phenyl]-3-(trifluoromethyl)-6,7-dihydro-4H-pyrazolo[4,3-c]pyridin-5-yl]sulfonyl]benzoic acid] was 1 to 2 µM; that for `CN(C(=O)c1cccc(-n2nc(C(F)(F)F)c3c2CCN(C(=O)C(C)(C)O)C3)c1)c1ccc2c(c1)OCO2` [Compound 058, N-(1,3-Benzodioxol-5-yl)-3-[5-(2-hydroxy-2-methyl-propanoyl)-3-(trifluoromethyl)-6,7-dihydro-4H-pyrazolo[4,3-c]pyridin-1-yl]-N-methyl-benzamide] was below 1 µM.
The value for `COC(=O)c1cccc(S(=O)(=O)N2CCc3c(c(C(F)(F)F)nn3-c3cccc(C(=O)N(C)c4ccc5c(c4)OCO5)c3)C2)c1` [Compound 059, Methyl 3-[[1-[3-[1,3-benzodioxol-5-yl(methyl)carbamoyl]phenyl]-3-(trifluoromethyl)-6,7-dihydro-4H-pyrazolo[4,3-c]pyridin-5-yl]sulfonyl]benzoate] was below 1 µM; that for `COC(=O)c1ccccc1S(=O)(=O)N1CCc2c(c(C(F)(F)F)nn2-c2cccc(C(=O)N(C)c3ccc4c(c3)OCO4)c2)C1` [Compound 060, Methyl 2-[[1-[3-[1,3-benzodioxol-5-yl(methyl)carbamoyl]phenyl]-3-(trifluoromethyl)-6,7-dihydro-4H-pyrazolo[4,3-c]pyridin-5-yl]sulfonyl]benzoate] was below 1 µM.
The value for `CN(C(=O)c1cccc(-n2nc(C(F)(F)F)c3c2CCN(S(=O)(=O)c2cccc(C(=O)O)c2)C3)c1)c1ccc2c(c1)OCO2` [Compound 061, 3-[[1-[3-[1,3-Benzodioxol-5-yl(methyl)carbamoyl]phenyl]-3-(trifluoromethyl)-6,7-dihydro-4H-pyrazolo[4,3-c]pyridin-5-yl]sulfonyl]benzoic acid] was above 2 µM.

One may read the EC50 as the concentration giving half of the maximal effect.
